Calls of active or inactive are those of the source.
What was measured:
[1] = target: T1, Mannose-6-phosphate isomerase (Homo sapiens, UniProt P34949); assay: human PMI inhibitors, high substrate, primary screen, biochemical, fluorescence intensity, high mannose 6-phosphate (AID 1220)
T1 sequence (P34949 whole entry): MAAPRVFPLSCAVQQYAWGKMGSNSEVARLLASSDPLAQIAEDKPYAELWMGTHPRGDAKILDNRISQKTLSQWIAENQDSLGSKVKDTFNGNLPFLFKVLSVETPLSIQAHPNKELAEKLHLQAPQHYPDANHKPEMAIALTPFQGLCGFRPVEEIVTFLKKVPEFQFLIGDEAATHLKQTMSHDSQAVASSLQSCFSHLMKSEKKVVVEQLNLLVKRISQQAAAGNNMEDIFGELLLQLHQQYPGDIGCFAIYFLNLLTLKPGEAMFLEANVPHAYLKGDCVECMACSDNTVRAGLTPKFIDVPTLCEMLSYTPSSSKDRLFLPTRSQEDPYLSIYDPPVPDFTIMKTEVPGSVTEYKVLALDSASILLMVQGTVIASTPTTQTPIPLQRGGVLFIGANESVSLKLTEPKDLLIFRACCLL

[2] = tested on: INS1; assay: beta cell apoptosis inhibitors, cytokine rescue, dose response, luminescence, retest (AID 449756); format: functional, cell-based; settings: Rattus norvegicus;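 further: cell death triggered by IL-1 beta plus TNF-alpha plus IFN-gamma mixture; protective hits raise ATP signal compared with cytokine alone wells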
[3] = Vero E6 cell cytotoxicity, dose response, cytotoxicity control for non-replicating M. tuberculosis project, secondary assay (AID 492998); format: functional, VeroE6; settings: Vero C1008
[4] = Luminescence Cell-Based Dose Response HTS to Identify Inhibitors of 5'UTR Stem-Loop Driven Prion Protein mRNA Translation in H4 Neuroglioblastoma Cells. [Related pubchem assays: 1827 (Project Summary), 1813 (Primary HTS)]; format: functional
[5] = inhibitors of firefly luciferase expression or activity, dose response, H4 neuroglioma cells, luminescence (AID 1990); format: functional, cell-based
[6] = cytotoxicity toward NIH3T3 fibroblasts, dose response, counter-screen, cell-based, ATP luminescence, mouse fibroblasts (AID 2010); format: functional;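 further: cells exposed to compound for about 90 hours before reading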
[7] = inhibitors of intracellular T. cruzi replication, confirmation, NIH3T3 host cells, beta-gal luminescence (AID 2044); format: functional, cell-based;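 further: intracellular parasites grown in NIH/3T3 mouse fibroblasts as host cells; luminescent beta-galactosidase reporter signal from transgenic T. cruzi replicating inside host cells; inhibitors lower the luminescence signal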
[8] = inhibitors of SNCA 5'UTR-driven reporter translation, confirmation, H4 neuroglioma cells, luminescence (AID 1988); format: functional, cell-based
[9] = target: Protein Wnt-3a (Mus musculus, UniProt P27467); assay: Wnt3a-driven reporter signaling inhibition, dose response, selectivity assay for Gli-SUFU antagonist project, Wnt-LIGHT cells, luminescence (AID 651570); format: functional; settings: read-out: IC50_Mean;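 further: Wnt-LIGHT reporter cells stimulated with conditioned medium from Wnt3a-producing cells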
Chain of Protein Wnt-3a (P27467 whole entry): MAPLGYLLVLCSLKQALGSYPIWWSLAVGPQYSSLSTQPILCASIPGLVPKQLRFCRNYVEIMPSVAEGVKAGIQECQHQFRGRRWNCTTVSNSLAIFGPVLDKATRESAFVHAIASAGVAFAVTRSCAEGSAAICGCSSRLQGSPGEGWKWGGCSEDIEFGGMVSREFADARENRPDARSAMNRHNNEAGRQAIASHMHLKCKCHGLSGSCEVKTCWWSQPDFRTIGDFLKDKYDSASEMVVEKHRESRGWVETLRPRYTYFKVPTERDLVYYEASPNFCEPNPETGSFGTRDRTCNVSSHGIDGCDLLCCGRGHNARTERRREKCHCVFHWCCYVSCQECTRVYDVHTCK

[10] = HepG2 cell cytotoxicity, dose response, cytotoxicity control for non-replicating M. tuberculosis project (AID 489018); format: functional; settings: Mycobacterium tuberculosis
[11] = target: T1, Mannose-6-phosphate isomerase; assay: inhibitors of human PMI, primary screen, biochemical, fluorescence intensity, coupled assay (AID 1209)
[12] = cells; format: functional
[13] = target: Lysine-specific demethylase 4C (Homo sapiens, UniProt Q9H3R0); assay: GASC-1 (JMJD2C) histone demethylase inhibitors, dose response, biochemical, DELFIA europium, cherry-picked samples (AID 488835); format: functional
Chain of Lysine-specific demethylase 4C (Q9H3R0 whole entry): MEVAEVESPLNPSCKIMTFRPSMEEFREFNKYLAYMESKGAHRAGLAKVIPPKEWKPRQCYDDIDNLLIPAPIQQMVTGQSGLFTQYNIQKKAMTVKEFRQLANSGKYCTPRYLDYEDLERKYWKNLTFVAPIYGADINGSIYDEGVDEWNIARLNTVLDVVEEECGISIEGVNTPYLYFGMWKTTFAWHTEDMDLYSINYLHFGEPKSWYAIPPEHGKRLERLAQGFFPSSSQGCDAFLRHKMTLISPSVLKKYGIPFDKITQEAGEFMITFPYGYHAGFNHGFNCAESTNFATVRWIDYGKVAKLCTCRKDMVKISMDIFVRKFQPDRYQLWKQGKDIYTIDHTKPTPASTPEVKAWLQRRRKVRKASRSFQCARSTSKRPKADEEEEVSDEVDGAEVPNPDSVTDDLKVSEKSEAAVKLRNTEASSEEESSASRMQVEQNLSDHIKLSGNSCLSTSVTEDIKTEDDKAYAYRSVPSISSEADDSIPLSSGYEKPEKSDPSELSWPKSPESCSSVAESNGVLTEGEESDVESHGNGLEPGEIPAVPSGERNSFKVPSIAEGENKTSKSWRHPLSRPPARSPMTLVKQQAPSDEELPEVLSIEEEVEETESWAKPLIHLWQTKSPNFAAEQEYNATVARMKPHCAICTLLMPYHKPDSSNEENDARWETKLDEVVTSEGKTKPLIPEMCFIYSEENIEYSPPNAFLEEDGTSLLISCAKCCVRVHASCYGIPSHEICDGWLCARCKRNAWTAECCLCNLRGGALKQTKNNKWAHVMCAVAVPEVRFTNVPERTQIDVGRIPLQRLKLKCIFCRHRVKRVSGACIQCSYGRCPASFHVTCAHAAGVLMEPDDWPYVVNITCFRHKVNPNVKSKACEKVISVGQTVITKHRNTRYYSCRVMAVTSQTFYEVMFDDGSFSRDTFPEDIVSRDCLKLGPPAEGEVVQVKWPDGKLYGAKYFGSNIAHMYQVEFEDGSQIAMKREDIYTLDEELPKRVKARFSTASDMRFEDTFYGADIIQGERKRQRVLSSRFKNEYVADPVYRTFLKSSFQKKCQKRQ

[14] = THP-1 cell cytotoxicity, dose response, cytotoxicity control for non-replicating M. tuberculosis project (AID 489025); format: functional
[15] = target: Perilipin-1/ABHD5 (Homo sapiens, UniProt O60240+Q8WTS1); assay: Luminescence-based biochemical high throughput dose response assay for inhibitors of the interaction of the lipase co-activator protein, abhydrolase domain containing 5 (ABHD5) with perilipin-1 (PLIN1) (2K validation set). [Related pubchem assays (depositor defined):AID493027, AID493057]
Chain of Perilipin-1/ABHD5 (Q8WTS1 whole entry, the tested form may be a part): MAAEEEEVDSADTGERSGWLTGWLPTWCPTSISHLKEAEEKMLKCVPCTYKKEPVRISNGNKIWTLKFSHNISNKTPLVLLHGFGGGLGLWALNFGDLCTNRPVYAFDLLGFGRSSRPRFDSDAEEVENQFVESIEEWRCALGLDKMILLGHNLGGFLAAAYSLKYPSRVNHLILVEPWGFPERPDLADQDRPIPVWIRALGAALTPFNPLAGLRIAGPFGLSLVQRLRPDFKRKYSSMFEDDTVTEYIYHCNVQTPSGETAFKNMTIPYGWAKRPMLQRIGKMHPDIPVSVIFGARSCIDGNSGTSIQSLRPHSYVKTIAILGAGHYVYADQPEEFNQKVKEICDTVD
Chain of Perilipin-1/ABHD5 (O60240 whole entry, the tested form may be a part): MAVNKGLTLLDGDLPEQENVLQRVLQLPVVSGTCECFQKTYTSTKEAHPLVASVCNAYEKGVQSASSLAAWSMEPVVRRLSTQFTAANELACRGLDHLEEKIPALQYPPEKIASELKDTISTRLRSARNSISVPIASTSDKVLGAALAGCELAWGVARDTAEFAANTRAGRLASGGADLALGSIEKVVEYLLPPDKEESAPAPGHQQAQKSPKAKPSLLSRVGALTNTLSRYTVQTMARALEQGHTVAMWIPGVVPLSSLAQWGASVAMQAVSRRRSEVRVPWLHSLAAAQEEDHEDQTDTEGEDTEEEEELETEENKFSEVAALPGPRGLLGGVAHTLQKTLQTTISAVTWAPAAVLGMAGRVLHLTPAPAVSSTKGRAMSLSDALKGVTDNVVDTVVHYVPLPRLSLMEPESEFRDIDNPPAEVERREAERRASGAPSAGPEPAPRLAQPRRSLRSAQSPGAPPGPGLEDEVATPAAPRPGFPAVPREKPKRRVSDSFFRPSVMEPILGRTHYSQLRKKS

[16] = target: Troponin, cardiac muscle (Homo sapiens, UniProt P19429+P45379+P63316); assay: Fluorescence-based biochemical high throughput dose response assay for activators of the calcium sensitivity of cardiac Regulated Thin Filaments (RTF). [Related pubchem assays (depositor defined):AID493008, AID493018, AID504382, AID504383]; format: protein-complex assay
[17] = target: 1-acylglycerol-3-phosphate O-acyltransferase ABHD5/Perilipin-5 (Homo sapiens, UniProt Q00G26+Q8WTS1); assay: Luminescence-based biochemical high throughput dose response assay for inhibitors of the interaction of the lipase co-activator protein, abhydrolase domain containing 5 (ABHD5) with perilipin-5 (MLDP; PLIN5) (2K validation set). [Related pubchem assays (depositor defined):AID493035, AID493241]
Chain of 1-acylglycerol-3-phosphate O-acyltransferase ABHD5/Perilipin-5 (Q00G26 whole entry, the tested form may be a part): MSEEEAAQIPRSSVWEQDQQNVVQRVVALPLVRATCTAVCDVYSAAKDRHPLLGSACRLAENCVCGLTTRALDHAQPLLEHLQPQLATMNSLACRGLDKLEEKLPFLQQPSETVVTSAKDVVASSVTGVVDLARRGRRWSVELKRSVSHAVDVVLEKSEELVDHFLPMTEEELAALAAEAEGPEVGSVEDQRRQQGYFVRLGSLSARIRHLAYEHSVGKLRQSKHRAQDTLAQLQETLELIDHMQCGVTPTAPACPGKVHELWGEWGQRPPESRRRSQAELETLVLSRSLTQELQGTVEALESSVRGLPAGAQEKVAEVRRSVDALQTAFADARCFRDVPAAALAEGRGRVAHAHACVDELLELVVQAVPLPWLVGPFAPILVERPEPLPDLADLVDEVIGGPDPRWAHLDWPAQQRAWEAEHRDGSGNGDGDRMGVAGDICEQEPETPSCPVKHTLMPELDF
Chain of 1-acylglycerol-3-phosphate O-acyltransferase ABHD5/Perilipin-5 (Q8WTS1 whole entry, the tested form may be a part): as the sequence (Q8WTS1 whole entry, the tested form may be a part) above

[18] = target: Hexokinase (Trypanosoma brucei, UniProt Q38C41); assay: Confirmation assay for inhibitors of Trypanosoma brucei hexokinase 1-Analogue-first series. [Related pubchem assays (depositor defined):AID1430, AID1632, AID2516, AID2560, AID2579, AID2600, AID449725, AID492951]; format: functional
Chain of Hexokinase (Q38C41 whole entry): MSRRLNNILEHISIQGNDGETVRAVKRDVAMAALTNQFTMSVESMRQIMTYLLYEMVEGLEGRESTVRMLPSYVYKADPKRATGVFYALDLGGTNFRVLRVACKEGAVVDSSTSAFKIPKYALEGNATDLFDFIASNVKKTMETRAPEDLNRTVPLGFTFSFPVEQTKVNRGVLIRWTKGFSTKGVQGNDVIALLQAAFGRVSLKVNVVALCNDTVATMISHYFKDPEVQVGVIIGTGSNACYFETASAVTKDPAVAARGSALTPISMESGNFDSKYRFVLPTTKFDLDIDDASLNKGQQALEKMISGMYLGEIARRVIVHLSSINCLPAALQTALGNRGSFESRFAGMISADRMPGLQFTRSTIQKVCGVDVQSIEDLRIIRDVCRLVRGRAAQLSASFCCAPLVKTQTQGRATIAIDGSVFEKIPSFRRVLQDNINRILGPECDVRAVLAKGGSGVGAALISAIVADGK

## Cc1cc(N/N=C/c2ccc(O)cc2O)nc(-n2nc(C)cc2C)n1
[1]
  IC50: > 50 µM (not active)
[2]
  AC50: 0.3 µM (active)
[3]
  CC50: 3.72 µM (active)
[4]
  EC50: 11.4 µM (active)
[5]
  EC50: 10.9 µM (active)
[6]
  EC50: > 30 µM (not active)
[7]
  EC50: 2.05 µM (active)
[8]
  EC50: 11.2 µM (active)
[9]
  IC50: 41.3 µM (inactive)
[10]
  CC50: 11.4 µM (active)
[11]
  IC50: > 50 µM (not active)
[12]
  IC50: 0.18 µM (active)
[13]
  AC50: 2.7 µM (active)
[14]
  CC50: 8.18 µM (active)

## COc1ccccc1C(=O)Oc1ccc2c(c1)O/C(=C\c1ccncc1)C2=O
[15]
  IC50: 6.72 µM (active)
[16]
  EC50: 13.7 µM (inactive)
[17]
  IC50: 8.12 µM (active)

## COc1ccc(C(=O)Nc2c(C(=O)O)ccc(Cl)c2Cl)cc1
[18]
  IC50: > 25 µM (inactive)
